How the values were obtained:
[1] = test system: Bcl-2; assay: Western blot of building block components, Bcl-2 expression in Skmel-28 melanoma cells; format: cell-based; design: key to Bcl-2 expression: X: a decrease in Bc1-2 expression for most of the concentrations and combinations tested as depicted in the table below; conditions: for Bcl-2 reduction or Caspase-3 increase: 500 nM, 1 μM, 25 μM and 50 μM
Method: (§1) Skmel-28 melanoma cells were cultured in DMEM/F12 supplemented with 5% Fetal Bovine Serum (FBS) and 1× final concentration of Antibiotics. The cells were grown to 85% confluency and treated with building block components for 3, 6, 12 and 24 hours. The cells were then pelleted and a Western blot analysis was performed.
(§2) The test building block components included L-Phenylylalanine, DL-Phenylyalanine, D-Phenylylalanine, L-Tyrosine, DL-Tyrosine, D-Tyrosine, 4-Hydroxy-phenylpyruvate, phenylacetate, 3-methoxy-4-hydroxymandelate (vanillylmandelate or VMA), vanillic acid, 4-hydroxy-benzoate, pyridoxine, panthenol, mevalonic acid, Acetylglycine, Acetyl-CoA, Farnesyl, and 2,3-Dimethoxy-5-methyl-p-benzoquinone.
(§3) In the Western Blot Analysis, the cells were pelleted in cold PBS, lysed, and the protein levels were quantified using a BCA protein assay. The whole cell lysate was loaded in a 4% loading 12% running Tris-HCl gel. The proteins were then transferred to a nitrocellulose paper then blocked with a 5% milk Tris-buffered solution for 1 hour. The proteins were then exposed to primary antibodies (Bcl-2 and Caspase-3) overnight. The nitrocellulose paper was then exposed to Pico Chemilluminescent for 5 min and the protein expression was recorded. After exposure, actin was quantified using the same method. Using ImageJ the levels of protein expression were quantified. A t-Test was used to analyze for statistical significance.

[2] = test system: Caspase-3; assay: Western blot of building block components, Caspase-3 expression in Skmel-28 melanoma cells; format: cell-based
Method: as §1, §2, §3

[3] = test system: Melanoma cells; assay: Cell proliferation assay (live cell count) of building block combinations; format: cell-based
Method: Cell Proliferation Assay of the Combination of 4-Hydroxy-Benzoate with Benzoquinone: This set of experiments used a cell proliferation assay to assess the effect of combining different building block molecules on cell proliferation.
The first study examined the effect of combining 4-Hydroxy-Benzoate with Benzoquinone. Cells were incubated for 48 hours, after which a cell count was performed for the live cells. Each test group was compared to the control, and each combination groups were compared to Benzoquinone control. The compounds were statistically analyzed for the addition of Benzoquinone.
Additional studies were performed testing additional molar ratios. For the first test 4-Hydroxybenzoic were tested at concentrations of 500 nM, 1 μM, and 50 μM. These concentrations were tested in combination with 2,3-Dimethoxy-5-methyl-p-benzoquinone (Benzo). The concentration of Benzo tested were 25 μM, 50 μM, and 100 μM. Melanoma cells were grown to 80% confluency and seeded in 6 well plates at a concentration of 40K cells per well. The cells were treated with CoQ10, 4-Hydroxybenzoate, Benzo, and a combination of 4-Hydroxybenzoate/Benzo.
A T-test was performed with p<0.05 as statistically significant.

[4] = test system: neonatal fibroblast cells; assay: Cell proliferation assay (coulter counter); format: cell-based; conditions: HB 500 nM, 5 μM, 25 μM, alone or with benzoquinone 25, 50, 100 μM; 24 hours
Method: A cell proliferation assay was also performed on neonatal fibroblast cells. […] The cells were trypsinized and quantified using a coulter counter.

[5] = test system: Succinate Dehydrogenase (SDH) Subunit B; assay: Western blot, Succinate Dehydrogenase B in mitochondrial preparations; format: cell-based; conditions: NCIE0808 Mitopreps, 50 uM, 3 h
Method: The above blots were stripped by incubating for 30 minutes with methanol, followed by two 10 minute washes with TBS-T, then 30 minutes of incubation with Stripping buffer at 50 deg C., and followed by two washes with 100 ml or more of TBS-T for 30′ each. The blots were scanned in laser scanner to check for complete stripping. The blots were activated with methanol for 5 seconds, washed with water for 5 minutes, and TBST for 15 minutes. The blots were blocked for 1 hour with 5% blocking reagent in TBS-T at room temperature and then washed 3 times with TBS-T (1×-15′; 2×5′ each) and probed with the primary antibody for PKM2, SDHB or SDHC in 5% BSA in TBS-T by incubation overnight at 4 deg C. with gentle shaking. The primary antibody for SDHC (ABNOVA H00006391-MO2; antimouse) was at 1:500 dilution. The primary antibody for SDHB was from Abcam ab4714-200; antimouse; at 1:1000 dilution. The primary antibody for Pyruvate Kinase M2 (PKM2) was from Novus Biologicals H00005315-D0IP; antirabbit; at 1:500 dilution. After incubation with primary antibodies, the membranes were washed 3 times with TBS-T (1×-15′; 2×5′ each) and probed with the secondary antibody (SDHB & C antimouse; and PKM2 antirabbit; 1:10,000 dilution) for 1 h on the orbital tilting shaker at room temperature. After 1 h of incubation, the blots were washed 3 times with TBS-T (1×-15′; 2×5′ each) and incubated with ECF reagent for 5 minutes and then each blot scanned with 5100 Fuji Laser scanner at 25 uM resolution, 16 bit, green laser, at 400V and at 500 V.

[6] = test system: cancer cells; conditions: cited from earlier work
[7] = test system: HDFa cells; assay: Extracellular acidification rate (ECAR), SeaHorse XF analyzer; format: cell-based, human; conditions: HDFa
Source text: Environmental influencers (e.g., MIMs or Epi-shifters) may also be identified by changes in cellular energetics. One example of the measurement of cellular energetics are the real-time measures of the consumption of molecular oxygen and/or the change in pH of the media of a cell culture. For example, the ability of a potential epi-shifter to modulate the metabolic state of a cell may be analyzed using, for example, the XF24 Analyzer (Seahorse, Inc.). This technology allows for real time detection of oxygen and pH changes in a monolayer of cells in order to evaluate the bioenergetics of a cell microenvironment. The XF24 Analyzer measures and compares the rates of oxygen consumption (OCR), which is a measure of aerobic metabolism, and extracellular acidification (ECAR), which is a measure of glycolysis, both key indicators of cellular energetics.
(SeaHorse Biosciences Inc, North Billerica, Mass.).
In this experiment, the OCR and extracellular acidification rate (ECAR) in normal cells lines were obtained in the presence and absence of CoQ10 to determine baseline values. It was observed that in its native nutrient environment, the basal OCR rates in normal cells lines are different, and are usually a function of the physiological roles of the cells in the body.
Table 51 below describes the ECAR values (mpH/min) in HDFa cells in the presence or absence of CoQ10 under normoxic and hypoxic conditions at 5.5 mM and 22 mM glucose.

NC(Cc1ccccc1)C(=O)O (racemic) [DL-Phenylalanine]
Bcl-2 expression ([1]; 24 hours, concentration not stated (5, 25, 100 μM tested)): statistically significant decrease | Caspase-3 expression ([2]; 3 hours, concentration not stated (5, 25, 100 μM tested)): statistically significant increase

NC(Cc1ccc(O)cc1)C(=O)O (racemic) [DL-Tyrosine]
Bcl-2 expression ([1]; 1 μM and 15 μM, 12 hours): statistical decrease | Bcl-2 expression ([1]; 5 μM, 24 hour (DL-Tyrosine series)): statistical decrease | Caspase-3 expression ([2]; 5 μM and 15 μM, 12 hours): increase

O=C(O)C(=O)Cc1ccc(O)cc1 [4-Hydroxy-phenylpyruvate]
Bcl-2 expression ([1]; 5 μM and 15 μM, 24 hours): significant reduction | Caspase-3 expression ([2]; 5 μM and 15 μM, 12 hours): significant increase

O=C(O)c1ccc(O)cc1 [4-Hydroxybenzoate]
Bcl-2 expression ([1]; 15 μM, 24 hours): significant reduction | cell number vs control ([3]; 48 hours incubation): significant decrease | cell proliferation ([3]; treatment medium containing HB (500 nM, 1 μM, 50 μM)): significant decrease | fibroblast cell number (toxicity in normal cells) [4]: did not show a significant reduction

CC(=O)SCCNC(=O)CCNC(=O)[C@H](O)C(C)(C)COP(=O)(O)OP(=O)(O)OC[C@H]1O[C@@H](n2cnc3c(N)ncnc32)[C@H](O)[C@@H]1OP(=O)(O)O [Acetyl-CoA]
Bcl-2 reduction or Caspase-3 increase [1]: no significant observed reduction in Bcl-2 or increase in Caspase-3 expression

CC(=O)NCC(=O)O [Acetylglycine]
Bcl-2 expression ([1]; 5 μM and 25 μM, 12 hours): significant decrease | Bcl-2 expression ([1]; 100 μM, 24 hour): significant decrease

COC1=C(OC)C(=O)C(C/C=C(\C)CC/C=C(\C)CC/C=C(\C)CC/C=C(\C)CC/C=C(\C)CC/C=C(\C)CC/C=C(\C)CC/C=C(\C)CC/C=C(\C)CCC=C(C)C)=C(C)C1=O [Coezyme Q10]
Succinate Dehydrogenase B Average Normalized Volume [5]: 634

N[C@H](Cc1ccccc1)C(=O)O [D-Phenylalanine]
Bcl-2 expression ([1]; 5 μM and 25 μM, 3 hours): significant reduction | Bcl-2 expression ([1]; 5 μM, 25 μM and 100 μM, 6 hours): significant reduction | Caspase-3 expression ([2]; 5 μM and 100 μM, 6 hours): significant increase

N[C@H](Cc1ccc(O)cc1)C(=O)O [D-Tyrosine]
Bcl-2 expression ([1]; 5 μM and 15 μM, 12 and 24 hours): reduction | Caspase-3 expression ([2]; 1 μM, 12 and 24 hour): increase | Caspase-3 expression ([2]; 5 μM, 3, 12 and 24 time periods): significantly increased

N[C@@H](Cc1ccccc1)C(=O)O [L-Phenylalanine]
Bcl-2 expression ([1]; 5 μM, 3 hr): X | Bcl-2 expression ([1]; 5 μM, 6 hours): statistically significant decrease | Bcl-2 expression ([1]; 25 μM, 3 hr): X | Bcl-2 expression ([1]; 25 μM, 6 hr): X | Bcl-2 expression ([1]; 25 μM, 12 hours): statistically significant decrease | Bcl-2 expression ([1]; 100 μM, 3 hours and 12 hours incubation): statistically significant decrease | Bcl-2 expression ([1]; 100 μM, 3 hr): X | Bcl-2 expression ([1]; 100 μM, 6 hr): X | Bcl-2 expression ([1]; 100 μM, 24 hr): X | Caspase-3 expression ([2]; 25 μM, 12 hours): statistically significant increase

N[C@@H](Cc1ccc(O)cc1)C(=O)O [L-Tyrosine]
Bcl-2 expression ([1]; 5 μM, 24 hours): statistically significant decrease | Bcl-2 expression ([1]; 500 μM and 5 μM (so in the source), 24 hours): statistically significant decrease | Caspase-3 expression ([2]; 500 nM, 12 hours): statistically significant increase

C[C@@](O)(CCO)CC(=O)O [Mevalonic Acid]
Bcl-2 reduction or Caspase-3 increase [1]: no significant reduction in Bcl-2 expression or an increase in Caspase-3 expression

CC(C)(CO)[C@@H](O)C(=O)NCCCO [Panthenol]
Bcl-2 expression ([1]; 25 μM): significant reduction

Cc1ncc(CO)c(CO)c1O [Pyridoxine]
Bcl-2 expression ([1]; 24 hours (5, 25, 100 μM tested)): significant reduction

COc1cc(C(O)C(=O)O)ccc1O (stereo not drawn) [VMA, 3-methoxy-4-hydroxymandelate]
apoptotic effect (Bcl-2/Caspase-3 Western blot) ([1]; 100 nM to 100 μM): no statistically significant apoptotic effect | trend of Bcl-2 expression ([1]; 100 nM to 100 μM): downward trend

COc1cc(C(=O)O)ccc1O [Vanillic Acid, Vanillic acid]
Bcl-2 expression ([1]; 500 nM and 5 μM, 24 hour): significantly reduce | Bcl-2 expression ([1]; 15 μM, 3 hours): reduction | Caspase-3 expression ([2]; 15 μM, 24 hours): significant increase

C=C1/C(=C\C=C2/CCC[C@]3(C)[C@@H]([C@H](C)CCCC(C)(C)O)CC[C@@H]23)C[C@@H](O)C[C@@H]1O [Vitamin D3, 1α, 25-dihydroxyvitamin D3]
expression of anti-apoptotic proteins BCL2 and BCL-XL ([6]; reported (Deeb et al. 2007)): repressing the expression | expression of pro-apoptotic proteins (BAX, BAK and BAD) ([6]; reported (Deeb et al. 2007)): inducing the expression | gene transcription of cyclin-dependent kinase inhibitor p21WAFI/CIPI ([6]; reported (Deeb et al. 2007)): induce gene transcription | expression of vascular endothelial growth factor (VEGF) ([6]; reported (Masuda and Jones, 2006)): inhibit the expression

COC1=C(OC)C(=O)C(C/C=C(\C)CC/C=C(\C)CC/C=C(\C)CC/C=C(\C)CC/C=C(\C)CC/C=C(\C)CC/C=C(\C)CC/C=C(\C)CC/C=C(\C)CCC=C(C)C)=C(C)C1=O [compound 31510]
ECAR ([7]; Hypoxia (5.5 mM), 50 μM): 5 mpH/min | ECAR ([7]; Hypoxia (5.5 mM), 100 μM): 5 mpH/min | ECAR ([7]; Hypoxia (22 mM), 50 μM): 6 mpH/min | ECAR ([7]; Hypoxia (22 mM), 100 μM): 8 mpH/min | ECAR ([7]; Normoxia (5.5 mM), 50 μM): 6 mpH/min | ECAR ([7]; Normoxia (5.5 mM), 100 μM): 6 mpH/min | ECAR ([7]; Normoxia (22 mM), 50 μM): 5 mpH/min | ECAR ([7]; Normoxia (22 mM), 100 μM): 5 mpH/min

— US20110020312A1, “METHODS FOR TREATMENT OF METABOLIC DISORDERS USING EPIMETABOLIC SHIFTERS, MULTIDIMENSIONAL INTRACELLULAR MOLECULES, OR ENVIRONMENTAL INFLUENCERS” (priority 2009, published 2011)
